According to patent publication US9938273B2 (Plexxikon Inc., priority 2015, dated 2018):

Legend:
c-KIT = target: T1, c-KIT (Homo sapiens, UniProt P10721); experiment: AlphaScreen kinase assay with recombinant enzyme, c-KIT; format: biochemical; conditions: 100ATP, 8pt, GMean
T1 construct: purchased Millipore 14-559K
In short: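 Read-out: AlphaScreen proximity signal at 580 nm (680 nm excitation), lost as peptide tyrosine phosphorylation falls. Substrate Biotin-GG(EEEEY)10EE at 30 nM; IC50 runs at 10 μM (FLT3 mutants) or 100 μM (c-KIT) final. Donor beads 20 min, then acceptor beads 60 min, room temperature.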

[1] = target: T2, BA/F3-FLT3-ITD + D835Y cells (Homo sapiens, UniProt P36888, D835Y, cells depend on it, form not given); experiment: Cell proliferation assay (CellTiter-Glo), engineered BA/F3 cells; format: cell-based, murine; conditions: BaF3 FLT3 ITD/D835Y cells, 3d-Growth; read-out: BaF3_FLT3 ITD/D835Y 3d-Growth: IC50
T2 sequence (P36888 1-993 D835Y): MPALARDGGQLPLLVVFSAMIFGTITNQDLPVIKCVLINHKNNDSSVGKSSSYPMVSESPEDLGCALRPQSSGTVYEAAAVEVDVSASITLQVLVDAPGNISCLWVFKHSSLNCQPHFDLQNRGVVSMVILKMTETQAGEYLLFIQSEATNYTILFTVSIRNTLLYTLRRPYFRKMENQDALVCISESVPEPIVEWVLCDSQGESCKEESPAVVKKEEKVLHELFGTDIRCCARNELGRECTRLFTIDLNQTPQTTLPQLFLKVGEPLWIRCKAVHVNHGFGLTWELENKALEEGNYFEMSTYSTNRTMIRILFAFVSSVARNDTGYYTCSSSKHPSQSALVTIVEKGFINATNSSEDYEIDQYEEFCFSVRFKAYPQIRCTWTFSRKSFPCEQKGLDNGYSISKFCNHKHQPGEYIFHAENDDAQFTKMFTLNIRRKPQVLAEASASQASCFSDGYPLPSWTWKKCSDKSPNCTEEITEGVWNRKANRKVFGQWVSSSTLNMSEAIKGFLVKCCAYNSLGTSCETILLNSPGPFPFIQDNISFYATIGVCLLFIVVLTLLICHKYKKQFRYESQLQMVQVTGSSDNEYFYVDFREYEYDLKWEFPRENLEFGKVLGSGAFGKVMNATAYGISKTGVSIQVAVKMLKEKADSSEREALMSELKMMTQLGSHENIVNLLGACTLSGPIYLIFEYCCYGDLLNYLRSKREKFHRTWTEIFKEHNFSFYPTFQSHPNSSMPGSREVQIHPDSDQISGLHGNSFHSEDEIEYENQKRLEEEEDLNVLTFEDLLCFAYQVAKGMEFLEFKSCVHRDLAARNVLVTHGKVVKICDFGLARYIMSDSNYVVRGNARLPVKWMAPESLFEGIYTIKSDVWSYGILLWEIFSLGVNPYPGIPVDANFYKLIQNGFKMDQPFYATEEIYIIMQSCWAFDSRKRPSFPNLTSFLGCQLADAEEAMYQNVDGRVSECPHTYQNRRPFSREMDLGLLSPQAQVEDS
In short: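 Three-day growth at 37 °C, 5% CO2 under compound (1 μM top final, 1:3 dilutions, eight points, 0.2% DMSO), read as ATP luminescence by CellTiter-Glo for IC50. Cells: MOLM-14 with FLT3 ITD plus D835Y or F691L, and IL-3-deprived Ba/F3 transfected with FLT3 ITD/D835Y, 1×10^4 per well.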

T1 sequence (P10721 26-976): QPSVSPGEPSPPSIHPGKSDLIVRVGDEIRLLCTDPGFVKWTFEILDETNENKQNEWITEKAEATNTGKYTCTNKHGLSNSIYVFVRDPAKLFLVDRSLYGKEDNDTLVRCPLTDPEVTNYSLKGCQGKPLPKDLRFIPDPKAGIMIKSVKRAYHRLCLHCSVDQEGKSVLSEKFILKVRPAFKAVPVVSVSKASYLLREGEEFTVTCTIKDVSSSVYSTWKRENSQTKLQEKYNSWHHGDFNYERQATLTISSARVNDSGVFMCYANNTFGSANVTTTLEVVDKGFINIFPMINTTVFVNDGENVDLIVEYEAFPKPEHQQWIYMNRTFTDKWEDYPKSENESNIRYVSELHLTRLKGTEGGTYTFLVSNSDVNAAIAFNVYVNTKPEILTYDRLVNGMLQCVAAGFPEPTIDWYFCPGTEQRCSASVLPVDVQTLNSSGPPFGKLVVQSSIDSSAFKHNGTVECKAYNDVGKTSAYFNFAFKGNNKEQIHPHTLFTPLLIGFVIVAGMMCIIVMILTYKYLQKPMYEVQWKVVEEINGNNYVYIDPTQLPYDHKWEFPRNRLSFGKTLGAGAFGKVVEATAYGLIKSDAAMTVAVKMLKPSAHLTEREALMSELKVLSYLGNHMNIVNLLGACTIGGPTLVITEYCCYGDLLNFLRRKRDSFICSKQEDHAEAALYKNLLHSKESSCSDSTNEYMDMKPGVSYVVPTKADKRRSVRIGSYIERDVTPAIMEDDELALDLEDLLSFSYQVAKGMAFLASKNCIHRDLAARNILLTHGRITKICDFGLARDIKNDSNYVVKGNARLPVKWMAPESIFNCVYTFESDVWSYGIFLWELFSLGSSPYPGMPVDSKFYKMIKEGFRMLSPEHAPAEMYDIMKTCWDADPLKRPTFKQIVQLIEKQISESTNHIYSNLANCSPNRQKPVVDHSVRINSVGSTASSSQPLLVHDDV

Row | Compound | IC50 (c-KIT) | GI50 [1]
1 | CNC1CCN(C(=O)c2cccc(-c3cnc4[nH]c(-c5cnn(CC(F)(F)F)c5)cc4c3)n2)C1 (stereo not shown) [Compound P-0061, [3-(methylamino)pyrrolidin-1-yl]-[6-[2-[1-(2,2,2-trifluoroethyl)pyrazol-4-yl]-1H-pyrrolo[2,3-b]pyridin-5-yl]-2-pyridyl]methanone] | 10 to 50 µM | 0.0001 to 10 µM
2 | CN1CCC(NC(=O)c2cccc(-c3cnc4[nH]c(-c5ccccc5)cc4c3)n2)C1 (stereo not shown) [Compound P-0064, N-(1-methylpyrrolidin-3-yl)-6-(2-phenyl-1H-pyrrolo[2,3-b]pyridin-5-yl)pyridine-2-carboxamide] | 0.0001 to 10 µM | 0.0001 to 10 µM
3 | CN(C)S(=O)(=O)Nc1cccc(-c2cnc3[nH]c(-c4ccccc4)cc3c2)c1 [Compound P-0007, 5-[3-(dimethylsulfamoylamino)phenyl]-2-phenyl-1H-pyrrolo[2,3-b]pyridine] | 10 to 50 µM | 0.0001 to 10 µM
4 | CC1CCN(C(=O)c2n[nH]c3ccc(-c4cnc5[nH]c(-c6ccccc6)cc5c4)cc23)CC1 [Compound P-0027, (4-methyl-1-piperidyl)-[5-(2-phenyl-1H-pyrrolo[2,3-b]pyridin-5-yl)-1H-indazol-3-yl]methanone] | 50 to 100 µM | 0.0001 to 10 µM
5 | CNC1CCN(C(=O)c2cccc(-c3cnc4[nH]c(-c5ccccc5)cc4c3)n2)C1 (stereo not shown) [Compound P-0040, [3-(methylamino)pyrrolidin-1-yl]-[6-(2-phenyl-1H-pyrrolo[2,3-b]pyridin-5-yl)-2-pyridyl]methanone] | 0.0001 to 10 µM | 0.0001 to 10 µM
6 | NCC1CCN(C(=O)c2cccc(-c3cnc4[nH]c(-c5ccccc5)cc4c3)n2)CC1 [Compound P-0026, [4-(aminomethyl)-1-piperidyl]-[6-(2-phenyl-1H-pyrrolo[2,3-b]pyridin-5-yl)-2-pyridyl]methanone] | 0.0001 to 10 µM | 0.0001 to 10 µM
7 | CNC1CCN(C(=O)c2cccc(-c3cnc4[nH]c(-c5cccc(C#N)c5)cc4c3)n2)C1 (stereo not shown) [Compound P-0062, 3-[5-[6-[3-(methylamino)pyrrolidine-1-carbonyl]-2-pyridyl]-1H-pyrrolo[2,3-b]pyridin-2-yl]benzonitrile] | 10 to 50 µM | 0.0001 to 10 µM
8 | CNC1CCN(C(=O)c2cccc(-c3cnc4[nH]c(-c5ccnc(OC)c5)cc4c3)n2)C1 (stereo not shown) [Compound P-0060, [6-[2-(2-methoxy-4-pyridyl)-1H-pyrrolo[2,3-b]pyridin-5-yl]-2-pyridyl]-[3-(methylamino)pyrrolidin-1-yl]methanone] | 0.0001 to 10 µM | 0.0001 to 10 µM
9 | CNC1CCN(S(=O)(=O)c2cccc(-c3cnc4[nH]c(-c5ccccc5)cc4c3)n2)C1 (stereo not shown) [Compound P-0063, N-methyl-1-[[6-(2-phenyl-1H-pyrrolo[2,3-b]pyridin-5-yl)-2-pyridyl]sulfonyl]pyrrolidin-3-amine] | 0.0001 to 10 µM | 0.0001 to 10 µM
10 | O=C(c1cccc(-c2cnc3[nH]c(-c4ccccc4)cc3c2)n1)N1CCC(C(F)(F)F)C1 (stereo not shown) [Compound P-0103, [6-(2-phenyl-1H-pyrrolo[2,3-b]pyridin-5-yl)-2-pyridyl]-[3-(trifluoromethyl)pyrrolidin-1-yl]methanone] | 50 to 100 µM | 0.0001 to 10 µM
11 | CNC1CCN(C(=O)c2cccc(-c3cnc4[nH]c(C5=CCC(C)(C)CC5)cc4c3)n2)C1 (stereo not shown) [Compound P-0070, [6-[2-(4,4-dimethylcyclohexen-1-yl)-1H-pyrrolo[2,3-b]pyridin-5-yl]-2-pyridyl]-[3-(methylamino)pyrrolidin-1-yl]methanone] | 0.0001 to 10 µM | 0.0001 to 10 µM
12 | O=C(c1cccc(-c2cnc3[nH]c(-c4ccccc4)cc3c2)n1)N1CC(F)(F)C1 [Compound P-0090, (3,3-difluoroazetidin-1-yl)-[6-(2-phenyl-1H-pyrrolo[2,3-b]pyridin-5-yl)-2-pyridyl]methanone] | 50 to 100 µM | 0.0001 to 10 µM
13 | O=C(c1cccc(-c2cnc3[nH]c(-c4ccccc4)cc3c2)n1)N1CCC(NC2CC2)C1 (stereo not shown) [Compound P-0085, [3-(cyclopropylamino)pyrrolidin-1-yl]-[6-(2-phenyl-1H-pyrrolo[2,3-b]pyridin-5-yl)-2-pyridyl]methanone] | 0.0001 to 10 µM | 0.0001 to 10 µM
14 | CN(C)C1CCN(C(=O)c2cccc(-c3cnc4[nH]c(-c5ccccc5)cc4c3)n2)C1 (stereo not shown) [Compound P-0104, [3-(dimethylamino)pyrrolidin-1-yl]-[6-(2-phenyl-1H-pyrrolo[2,3-b]pyridin-5-yl)-2-pyridyl]methanone] | 0.0001 to 10 µM | 0.0001 to 10 µM
15 | NC1CCN(S(=O)(=O)c2cccc(-c3cnc4[nH]c(-c5ccccc5)cc4c3)n2)CC1 [Compound P-0073, 1-[[6-(2-phenyl-1H-pyrrolo[2,3-b]pyridin-5-yl)-2-pyridyl]sulfonyl]piperidin-4-amine] | 0.0001 to 10 µM | 0.0001 to 10 µM
16 | CONC(=O)c1cccc(-c2cnc3[nH]c(-c4ccccc4)cc3c2)c1 [Compound P-0003, N-methoxy-3-(2-phenyl-1H-pyrrolo[2,3-b]pyridin-5-yl)benzamide] | 0.0001 to 10 µM | 0.0001 to 10 µM
17 | CNC(=O)Nc1ccc(-c2cnc3[nH]c(-c4ccccc4)cc3c2)cc1 [Compound P-0006, 1-methyl-3-[4-(2-phenyl-1H-pyrrolo[2,3-b]pyridin-5-yl)phenyl]urea] | 0.0001 to 10 µM | 0.0001 to 10 µM
18 | O=S(=O)(NC1CNC1)c1cccc(-c2cnc3[nH]c(-c4ccccc4)cc3c2)n1 [Compound P-0071, N-(azetidin-3-yl)-6-(2-phenyl-1H-pyrrolo[2,3-b]pyridin-5-yl)pyridine-2-sulfonamide] | 10 to 50 µM | 0.0001 to 10 µM
19 | O=S(=O)(NC1CCNCC1)c1cccc(-c2cnc3[nH]c(-c4ccccc4)cc3c2)n1 [Compound P-0086, 6-(2-phenyl-1H-pyrrolo[2,3-b]pyridin-5-yl)-N-(4-piperidyl)pyridine-2-sulfonamide] | 0.0001 to 10 µM | 0.0001 to 10 µM
20 | NC1CCC(NS(=O)(=O)c2cccc(-c3cnc4[nH]c(-c5ccccc5)cc4c3)n2)CC1 (stereo not shown) [Compound P-0088, N-(4-aminocyclohexyl)-6-(2-phenyl-1H-pyrrolo[2,3-b]pyridin-5-yl)pyridine-2-sulfonamide] | 0.0001 to 10 µM | 0.0001 to 10 µM
21 | O=C(Nc1cccc(-c2cnc3[nH]c(-c4ccccc4)cc3c2)n1)C1CNC1 [Compound P-0084, N-[6-(2-phenyl-1H-pyrrolo[2,3-b]pyridin-5-yl)-2-pyridyl]azetidine-3-carboxamide] | 0.0001 to 10 µM | 0.0001 to 10 µM
22 | NC1CCC(NC(=O)c2cccc(-c3cnc4[nH]c(-c5ccccc5)cc4c3)n2)CC1 (stereo not shown) [Compound P-0018, N-(4-aminocyclohexyl)-6-(2-phenyl-1H-pyrrolo[2,3-b]pyridin-5-yl)pyridine-2-carboxamide] | 0.0001 to 10 µM | 0.0001 to 10 µM
23 | NC1CCN(C(=O)c2cccc(-c3cnc4[nH]c(-c5ccccc5)cc4c3)n2)CC1 [Compound P-0013, (4-amino-1-piperidyl)-[6-(2-phenyl-1H-pyrrolo[2,3-b]pyridin-5-yl)-2-pyridyl]methanone] | 0.0001 to 10 µM | 0.0001 to 10 µM
24 | N[C@H]1CCN(C(=O)c2ncc(-c3cnc4[nH]c(-c5ccccc5)cc4c3)s2)C1 [Compound P-0054, [(3S)-3-aminopyrrolidin-1-yl]-[5-(2-phenyl-1H-pyrrolo[2,3-b]pyridin-5-yl)thiazol-2-yl]methanone] | 0.0001 to 10 µM | 0.0001 to 10 µM
25 | CC(=O)NC1CCN(C(=O)c2cccc(-c3cnc4[nH]c(-c5ccccc5)cc4c3)n2)CC1 [Compound P-0020, N-[1-[6-(2-phenyl-1H-pyrrolo[2,3-b]pyridin-5-yl)pyridine-2-carbonyl]-4-piperidyl]acetamide] | 0.0001 to 10 µM | 0.0001 to 10 µM
26 | CS(=O)(=O)NC1CCN(C(=O)c2cccc(-c3cnc4[nH]c(-c5ccccc5)cc4c3)n2)C1 (stereo not shown) [Compound P-0101, N-[1-[6-(2-phenyl-1H-pyrrolo[2,3-b]pyridin-5-yl)pyridine-2-carbonyl]pyrrolidin-3-yl]methanesulfonamide] | 50 to 100 µM | 0.0001 to 10 µM
